The text below walks through data of ChEMBL document CHEMBL1138245, “Discovery of N1-(6-chloroimidazo[2,1-b][1,3]thiazole-5-sulfonyl)tryptamine as a potent, selective, and orally active 5-HT(6) receptor agonist” (J Med Chem, 2007).

The term EC50 denotes the concentration needed to bring the measured effect to its halfway point. As usually defined, the Emax is the greatest response seen or fitted, relative to the assay's reference. As a reminder, the Ki is the dissociation constant of the complex between target and ligand, obtained from inhibition or displacement. A low value points to a stronger hold on the target. As a reminder, the IC50 is the midpoint of a concentration-inhibition curve.

T1 sequence (P50406 whole entry): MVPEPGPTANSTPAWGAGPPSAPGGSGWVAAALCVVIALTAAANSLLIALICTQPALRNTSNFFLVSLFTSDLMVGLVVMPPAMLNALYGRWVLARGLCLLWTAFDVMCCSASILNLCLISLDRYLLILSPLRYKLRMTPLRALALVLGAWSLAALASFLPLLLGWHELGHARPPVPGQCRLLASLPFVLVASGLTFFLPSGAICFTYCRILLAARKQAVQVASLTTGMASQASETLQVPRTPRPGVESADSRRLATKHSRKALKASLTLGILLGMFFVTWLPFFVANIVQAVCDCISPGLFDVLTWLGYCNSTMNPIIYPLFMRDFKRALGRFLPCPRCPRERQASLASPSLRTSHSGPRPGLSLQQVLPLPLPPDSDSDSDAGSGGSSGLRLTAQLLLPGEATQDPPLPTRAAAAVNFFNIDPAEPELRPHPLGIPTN

One assay has as its target T1, 5-hydroxytryptamine receptor 6 (Homo sapiens, UniProt P50406). In words: Agonist activity at human 5HT6 receptor expressed in HeLa cells assessed as cAMP production. Type of assay: functional, cell-based. In general terms: cAMP levels reflect the balance of adenylyl cyclase and phosphodiesterase activity.
As for `NCCc1cn(S(=O)(=O)c2ccc(Cl)s2)c2ccccc12`, the EC50 is 0.181 µM and the Emax came to 100%.

`Cc1ccc(S(=O)(=O)n2cc(CCN)c3ccccc32)cc1`: the half-maximal effective concentration (EC50) was 0.191 µM and the Emax turned out to be 87.5%.

Consider `NCCc1cn(S(=O)(=O)c2ccc(Cl)cc2)c2ccccc12`, for which the EC50 is 0.174 µM and the Emax was determined as 93.5%.

Regarding `NCCc1cn(S(=O)(=O)c2ccccc2)c2ccccc12`, the EC50 was found to be 0.073 µM and the Emax stood at 92%.

`NCCc1cn(S(=O)(=O)c2ccc(N)cc2)c2ccccc12`: the EC50 stood at 0.091 µM and the maximum response (Emax) was 73%.

As to `NCCc1cn(S(=O)(=O)c2ccccc2Br)c2ccccc12`, the EC50 came out at 0.148 µM and the Emax came out at 97.5%.

Turning to `NCCc1cn(S(=O)(=O)c2ccc(Br)s2)c2ccccc12`, the EC50 was 0.054 µM and the Emax came to 72%.

For `NCCc1cn(S(=O)(=O)c2cccc(Cl)c2)c2ccccc12`, the EC50 stood at 0.108 µM and the Emax stood at 100%.

The target of a further assay is T1, 5-hydroxytryptamine receptor 6. The assay is described as follows: Displacement of [3H]LSD from human 5HT6 receptor expressed in HeLa cells. Type of assay: cell-based. In general terms: Loss of bound radioactivity is the signal in a displacement assay; it reports binding, not function.
Molecule `NCCc1cn(S(=O)(=O)c2ccc(Cl)c(Cl)c2)c2ccccc12` came in with an inhibition constant (Ki) of 0.03 µM.

With `NCCc1cn(S(=O)(=O)c2ccc(Cl)s2)c2ccccc12`, the inhibitory constant (Ki) worked out at 0.006 µM.

As for `COc1ccc(S(=O)(=O)n2cc(CCN)c3ccccc32)cc1OC`, the affinity corresponds to a Ki of 0.007 µM.

Molecule `Cc1ccc(S(=O)(=O)n2cc(CCN)c3ccccc32)cc1` yielded an inhibition constant (Ki) of 0.008 µM.

As to `COc1ccc(S(=O)(=O)n2cc(CCN)c3ccccc32)cc1`, the affinity corresponds to a Ki of 0.047 µM. This Ki lies about 5.9-fold higher than the previous one.

Consider `NCCc1cn(S(=O)(=O)c2ccc(Cl)cc2)c2ccccc12`, for which the inhibition constant Ki is 0.01 µM.

For the molecule `NCCc1cn(S(=O)(=O)c2ccccc2)c2ccccc12`, the Ki was found to be 0.01 µM.

Turning to `NCCc1cn(S(=O)(=O)c2ccc(F)cc2)c2ccccc12`, the Ki is 0.021 µM.

Molecule `CN1C=C(S(=O)(=O)n2cc(CCN)c3ccccc32)SC1N` (configuration not stated) displayed an inhibition constant (Ki) of 0.01 µM.

Consider `NCCc1cn(S(=O)(=O)c2ccc(N)cc2)c2ccccc12`, for which the affinity corresponds to a Ki of 0.001 µM.

In turn, `NCCc1cn(S(=O)(=O)c2ccc(I)cc2)c2ccccc12` came in with a Ki of 0.014 µM.

Molecule `NCCc1cn(S(=O)(=O)c2cc(Cl)c(Cl)s2)c2ccccc12` came in with an inhibition constant (Ki) of 0.031 µM.

The molecule `NCCc1cn(S(=O)(=O)c2ccccc2I)c2ccccc12` gave a Ki of 0.016 µM. This Ki lies about 1.9-fold lower than the previous one.

The molecule `NCCc1cn(S(=O)(=O)c2ccccc2Br)c2ccccc12` displayed an inhibition constant (Ki) of 0.011 µM. The Ki values of the last two molecules are within 1.5-fold of each other.

Consider `NCCc1cn(S(=O)(=O)c2ccc(Br)s2)c2ccccc12`, for which the Ki was determined as 0.007 µM. Against the preceding molecule, the Ki is about 1.6-fold lower.

In turn, `NCCc1cn(S(=O)(=O)c2cccc(Cl)c2)c2ccccc12` had an inhibitory constant (Ki) of 0.006 µM.

As to `CN(C)CCn1cc(S(=O)(=O)c2cccc(F)c2)c2ccccc21`, the inhibition constant Ki is 0.0103 µM. This Ki lies about 1.7-fold higher than the previous one.

The next assay shares this target. In words: Antagonist activity at human 5HT6 receptor expressed in HeLa cells assessed as cAMP production. Type of assay: functional, cell-based.
Take `COc1ccc(S(=O)(=O)n2cc(CCN)c3ccccc32)cc1OC`: the IC50 came out at 0.0175 µM and the Imax is 80.5%.

In the case of `CN1C=C(S(=O)(=O)n2cc(CCN)c3ccccc32)SC1N` (configuration not stated), the IC50 amounted to 0.0096 µM and the Imax amounted to 83%.
